Source: patent publication US4761414A, “Substituted 1H-pyrimido[1,2-a-]-pyrido[3,4-e]pyrazine 6 oxides” (G. D. Searle & Co., priority 1986, dated 1988)
≈ marks a conversion by molar mass, not a printed value. Counter-ions that a name gives are not always drawn. Like-named read-outs stand apart in the source and are kept apart here.

Assays:
[1] = system: Peptostreptococcus; assay: MIC vs panel of anaerobes; assay type: cell-based; settings: procedures of Example 40
[2] = system: Peptococcous magnus; assay: MIC vs panel of anaerobes; assay type: cell-based; settings: procedures of Example 40
[3] = system: Campylobacter fetus ss. jejuni NCTC 10842; assay: MIC vs panel of anaerobes; assay type: cell-based; settings: NCTC10842, procedures of Example 40
[4] = system: Costridium difficile NCIB 10666; assay: MIC vs panel of anaerobes; assay type: cell-based, C. difficile; settings: procedures of Example 40
[5] = system: B. fragilis NCTC 10581; assay: MIC/MBC against Bacteroides fragilis strain A (96-well microtitre plates, anaerobic chamber); assay type: cell-based; settings: for MBC / MIC: Bacteroides fragilis; for MBC: NCTC10581, 99.9% reduction in viable count; for MIC: NCTC10581, 48 h
Protocol: (§1) The screening panel utilized in this Example consisted of 5 strains of Bacteroides fragilis. All assays were carried out in 96-well microtitre plates. If an isolate was obtained from either a culture collection or clinical source, the isolate was immediately inoculated into Wilkens-Chalgren broth (Oxoid) and incubated at 37° C. in an anaerobic chamber in an atmosphere of 85% nitrogen, 10% carbon dioxide, and 5% hydrogen for 48 hours. At the end of this time, the viable count was about 10^12 organisms/ml broth. A 1 ml aliquot of each culture was placed in an ampoule and quick frozen in acetone-dry ice mixture and stored in liquid nitrogen. When an inoculum was utilized in an assay, one of the ampoules was thawed and diluted with fresh broth to yield a suspension having a count of 5×10^5 organisms/ml. A 100 μl aliquot of this suspension was inoculated into each well of the microtitre plate. A 2 mg sample of the test compound was dissolved in 0.2 ml of a suitable solvent such as dimethylsulfoxide, polyethylene glycol 200 or methanol. […] After addition of the test solution the final inoculum level was 10^5 cells/ml. The plates were incubated for 48 hours at 37° C. in the anaerobic chamber. The Minimum Inhibitory Concentration (MIC) was read visually. The MIC is defined as the lowest concentration at which there is no detectable growth. The Minimum Bactericidal Concentration (MBC) was determined by taking 50 μl aliquot from each well and placing it in fresh medium. […] The strains of Bacteroides fragilis utilized in the above procedure are identified by letter in accordance with the following legend: |A B. fragilis NCTC 10581

[6] = system: B. fragilis NCTC 9343; assay: MIC/MBC against Bacteroides fragilis strain B; assay type: cell-based
Protocol: as §1, with “|B” for “|A”, “9343” for “10581”

[7] = system: B. fragilis MZ-R ATCC 11295; assay: MIC/MBC against Bacteroides fragilis strain D; assay type: cell-based
Protocol: The screening panel utilized in this Example consisted of 5 strains of Bacteroides fragilis. All assays were carried out in 96-well microtitre plates. If an isolate was obtained from either a culture collection or clinical source, the isolate was immediately inoculated into Wilkens-Chalgren broth (Oxoid) and incubated at 37° C. in an anaerobic chamber in an atmosphere of 85% nitrogen, 10% carbon dioxide, and 5% hydrogen for 48 hours. At the end of this time, the viable count was about 10^12 organisms/ml broth. A 1 ml aliquot of each culture was placed in an ampoule and quick frozen in acetone-dry ice mixture and stored in liquid nitrogen. When an inoculum was utilized in an assay, one of the ampoules was thawed and diluted with fresh broth to yield a suspension having a count of 5×10^5 organisms/ml. A 100 μl aliquot of this suspension was inoculated into each well of the microtitre plate. A 2 mg sample of the test compound was dissolved in 0.2 ml of a suitable solvent such as dimethylsulfoxide, polyethylene glycol 200 or methanol. […] After addition of the test solution the final inoculum level was 10^5 cells/ml. The plates were incubated for 48 hours at 37° C. in the anaerobic chamber. The Minimum Inhibitory Concentration (MIC) was read visually. The MIC is defined as the lowest concentration at which there is no detectable growth. The Minimum Bactericidal Concentration (MBC) was determined by taking 50 μl aliquot from each well and placing it in fresh medium.

[8] = system: B. fragilis NCTC 9344; assay: MIC/MBC against Bacteroides fragilis strain C; assay type: cell-based
Protocol: as §1, with “|C” for “|A”, “9344” for “10581”

[9] = system: B. fragilis WS-1; assay: MIC/MBC against Bacteroides fragilis strain E; assay type: cell-based
Protocol: as §1, with “|E” for “|A”, “WS-1*” for “NCTC 10581”

[10] = system: Clostridium perfringens NCTC 8237; assay: microbe, parasite or virus in culture; assay type: cell-based; settings: Clostridium perfringens NCTC 8237; procedures of Example 40; bishydrochloride
[11] = system: P. anaerobius; assay: MIC vs panel of anaerobes; assay type: cell-based; settings: Peptostreptococcus anaerobius, procedures of Example 40
[12] = system: B. fragilis 23745; settings: p.o., after infection and twice daily for 2 days; log CFU/ml liver homogenate; test compound; bishydrochloride
[13] = system: Fusobacterium necrophorum ATCC 11295; assay: MIC vs panel of anaerobes; assay type: cell-based; settings: Fusobacterium necrophorum ATCC 11295; procedures of Example 40; bishydrochloride
[14] = system: Campylobacter fetus ss. jejuni ATCC 29428; assay: MIC vs panel of anaerobes; assay type: cell-based; settings: ATCC29428, procedures of Example 40
[15] = system: B. melanogenicus ATCC 15032; assay: MIC vs panel of anaerobes; assay type: cell-based; settings: procedures of Example 40
[16] = system: Clostridium perfringens NCTC 523; assay: microbe, parasite or virus in culture; assay type: cell-based; settings: Clostridium perfringens NCTC 523; procedures of Example 40; bishydrochloride

`Cc1ncc([N+](=O)[O-])n1CCO` [Metronidazole, metronidazole, reference compound] showed an MIC [1] of 100 µg/mL (≈ 584 µM), an MIC [2] of less than 0.8 µg/mL and an MIC [3] of 3.1 µg/mL (≈ 18.1 µM). For the same compound, the MIC ([4]; Clostridioides difficile, NCIB10666, C. difficile NCIB 10666, read-out: MIC) was less than 0.8 µg/mL, the “MBC, strain A” value ([5]; 99.9% reduction in viable count) was 1.5 µg/mL (≈ 8.76 µM) and the “MIC, strain A” value ([5]; 48 hours, 37° C., anaerobic) was 1.5 µg/mL (≈ 8.76 µM). The MBC [5] was less than 0.8 µg/mL and the MIC ([5]; 48 hours, 37° C., anaerobic) was less than 0.8 µg/mL.
`CCC1(C)CN=C2C(c3ccc(C)cc3)=[N+]([O-])c3cccnc3N2C1` (stereo not shown) [Example 35, 2,3-Dihydro-2-ethyl-2-methyl-5-(4-methylphenyl)-1H-pyrimido[1,2-a]pyrido[3,2-e]pyrazine 6-oxide] was tested, and the MBC ([6]; NCTC9343, 99.9% reduction in viable count) was less than 0.8 µg/mL, the MIC ([6]; NCTC9343, 48 h, 48 hours, 37° C., anaerobic) was less than 0.8 µg/mL and the MBC ([7]; ATCC11295, 99.9% reduction in viable count) was less than 0.8 µg/mL. For the same compound, the MIC ([7]; ATCC11295, 48 h, 48 hours, 37° C., anaerobic) was less than 0.8 µg/mL, the MBC ([8]; NCTC9344, 99.9% reduction in viable count) was less than 0.8 µg/mL and the MIC ([8]; NCTC9344, 48 h, 48 hours, 37° C., anaerobic) was less than 0.8 µg/mL. It also gave an MBC [5] of less than 0.8 µg/mL, an MIC ([5]; 48 hours, 37° C., anaerobic) of less than 0.8 µg/mL and an MBC ([9]; WS1, 99.9% reduction in viable count) of less than 0.8 µg/mL. For the same compound, the MIC ([9]; WS1, 48 h, 48 hours, 37° C., anaerobic) was less than 0.8 µg/mL.
`CC1(C)CN=C2C(c3ccccc3)=[N+]([O-])c3cccnc3N2C1` [Example 39, 2,3-dihydro-2,2-dimethyl-5-phenyl-1H-pyrimido[1,2-a]pyrido[3,2-e]pyrazine 6-oxide bishydrochloride] was tested, and the MIC [10] was 6.2 µg/mL, the MIC [11] was 100 µg/mL and the “DOSE GIVING 1 LOG REDUCTION” value [12] was 0.7 mg/kg. The “DOSE GIVING 1 LOG REDUCTION (molar)” value [12] was 1.8 μM/Kg, the MIC [13] was 1.5 µg/mL and the MIC [14] was 50 µg/mL. For the same compound, the MIC [15] was 100 µg/mL, the MIC [3] was 25 µg/mL and the MIC [16] was 1.5 µg/mL. The MIC ([4]; C. difficile NCIB 10666, bishydrochloride) was 1.5 µg/mL.
